Measurements published in patent publication US8569298B2, “Pyridine compounds” (Astrazeneca AB, priority 2008, dated 2013).

Molecular target: T1, FAK enzyme (6 His tagged kinase domain, GenBank NP—722560) (Homo sapiens, UniProt Q05397)
T1 construct: 6 His; made in house; host or cells: insect cell culture infected with baculovirus
Experiment: In vitro enzyme assay (a): sandwich ELISA of FAK tyrosine kinase activity on polyGAT peptide, TMB colorimetric endpoint
Format: biochemical
Settings: in vitro Enzyme Assay test (a); ATP at Km; geometric mean of n > 1 measurements, values marked * tested once
Summary of the method: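 Recombinant His-tagged FAK kinase domain (baculovirus/insect cells) phosphorylated plate-coated polyGAT with ATP at Km, MgCl2/MnCl2, HEPES pH 7.4, 25 min at room temperature before EDTA stop. Phosphotyrosine detected by HRP-4G10 antibody and TMB absorbance at 450 nm; IC50 from 12-point curve anchored to DMSO and staurosporine controls.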

T1 sequence (Q05397 422-680 limits assumed): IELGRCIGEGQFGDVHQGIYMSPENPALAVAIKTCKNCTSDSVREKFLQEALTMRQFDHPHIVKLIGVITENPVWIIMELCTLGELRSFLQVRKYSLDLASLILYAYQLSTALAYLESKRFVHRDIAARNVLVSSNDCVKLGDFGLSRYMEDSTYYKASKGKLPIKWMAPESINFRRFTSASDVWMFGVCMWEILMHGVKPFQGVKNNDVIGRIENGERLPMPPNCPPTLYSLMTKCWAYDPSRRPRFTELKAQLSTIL

Row | IC50 [nM] | SMILES
1 | 11 | CCn1ccc(Nc2cc(Nc3ccccc3C(=O)NC)c(C(F)(F)F)cn2)n1 [Example 8.06, 2-[[2-[(1-ethylpyrazol-3-yl)amino]-5-(trifluoromethyl)-4-pyridyl]amino]-N-methyl-benzamide]
2 | 26 | CNC(=O)c1ccccc1Nc1cc(Nc2cc(C3CC3)nn2C)ncc1C(F)(F)F [Example 8.07, 2-[[2-[(5-cyclopropyl-2-methyl-pyrazol-3-yl)amino]-5-(trifluoromethyl)-4-pyridyl]amino]-N-methyl-benzamide]
3 | 10 | CCn1nccc1Nc1cc(Nc2ccccc2C(=O)NC)c(C(F)(F)F)cn1 [Example 8.08, 2-[[2-[(2-ethylpyrazol-3-yl)amino]-5-(trifluoromethyl)-4-pyridyl]amino]-N-methyl-benzamide]
4 | 69 | CNC(=O)c1ccccc1Nc1cc(Nc2cnn(CC(C)C)c2)ncc1C(F)(F)F [Example 8.09, 2-[[2-[(1-isobutylpyrazol-4-yl)amino]-5-(trifluoromethyl)-4-pyridyl]amino]-N-methyl-benzamide]
5 | 13 | CNC(=O)c1ccccc1Nc1cc(Nc2c(C)nn(C)c2C)ncc1C(F)(F)F [Example 8.10, N-methyl-2-[[5-(trifluoromethyl)-2-[(1,3,5-trimethylpyrazol-4-yl)amino]-4-pyridyl]amino]benzamide]
6 | 34 | CNC(=O)c1ccccc1Nc1cc(Nc2cnn(C(C)C)c2)ncc1C(F)(F)F [Example 8.11, 2-[[2-[(1-isopropylpyrazol-4-yl)amino]-5-(trifluoromethyl)-4-pyridyl]amino]-N-methyl-benzamide]
7 | 18 | CNC(=O)c1ccccc1Nc1cc(Nc2cn(C)nc2C(F)(F)F)ncc1C(F)(F)F [Example 8.12, N-methyl-2-[[2-[[1-methyl-3-(trifluoromethyl)pyrazol-4-yl]amino]-5-(trifluoromethyl)-4-pyridyl]amino]benzamide]
8 | 8 | CNC(=O)c1cc(OC)ccc1Nc1cc(Nc2cn(C)nc2C)ncc1C(F)(F)F [Example 10.01, 2-[[2-[(1,3-dimethylpyrazol-4-yl)amino]-5-(trifluoromethyl)-4-pyridyl]amino]-5-methoxy-N-methyl-benzamide]
9 | 13 | CNC(=O)c1ccc(C)cc1Nc1cc(Nc2cn(C)nc2C)ncc1C(F)(F)F [Example 10.02, 2-[[2-[(1,3-Dimethylpyrazol-4-yl)amino]-5-(trifluoromethyl)-4-pyridyl]amino]-N,4-dimethyl-benzamide]
10 | 2 | CNC(=O)c1cc(C)ccc1Nc1cc(Nc2cn(C)nc2C)ncc1C(F)(F)F [Example 10.03, 2-[[2-[(1,3-dimethylpyrazol-4-yl)amino]-5-(trifluoromethyl)-4-pyridyl]amino]-N,5-dimethyl-benzamide]
11 | 53 | CNC(=O)c1ccc(OC)cc1Nc1cc(Nc2cn(C)nc2C)ncc1C(F)(F)F [Example 10.04, 2-[[2-[(1,3-dimethylpyrazol-4-yl)amino]-5-(trifluoromethyl)-4-pyridyl]amino]-4-methoxy-N-methyl-benzamide]
12 | 9 | CNC(=O)c1ccc(F)cc1Nc1cc(Nc2cn(C)nc2C)ncc1C(F)(F)F [Example 10.05, 2-[[2-[(1,3-dimethylpyrazol-4-yl)amino]-5-(trifluoromethyl)-4-pyridyl]amino]-4-fluoro-N-methyl-benzamide]
13 | 10 | CNC(=O)c1cccc(F)c1Nc1cc(Nc2cn(C)nc2C)ncc1C(F)(F)F [Example 10.06, 2-[[2-[(1,3-dimethylpyrazol-4-yl)amino]-5-(trifluoromethyl)-4-pyridyl]amino]-3-fluoro-N-methyl-benzamide]
14 | 14 | CNC(=O)c1cc(Cl)ccc1Nc1cc(Nc2cn(C)nc2C)ncc1C(F)(F)F [Example 10.07, 5-chloro-2-[[2-[(1,3-dimethylpyrazol-4-yl)amino]-5-(trifluoromethyl)-4-pyridyl]amino]-N-methyl-benzamide]
15 | 5 | CONC(=O)c1ccccc1Nc1cc(Nc2cn(C)nc2C)ncc1C(F)(F)F [Example 10.08, 2-[[2-[(1,3-dimethylpyrazol-4-yl)amino]-5-(trifluoromethyl)-4-pyridyl]amino]-N-methoxy-benzamide]
